In patent publication US20240390335A1, “PHARMACEUTICAL COMPOSITION CONTAINING BETA-LACTAM COMPOUND AND USE THEREOF” (priority 2021, published 2024):
Where two headings read alike, the source gives them in different places.

Tests used:
[1] = tested on: drug-resistant Enterobacteriaceae strains; experiment: Checkerboard combination, summary over Enterobacteriaceae strains; assay type: cell-based; conditions: combined with avibactam; all of the 12 drug-resistant Enterobacteriaceae strains tested
Procedure: (§1) Mueller-Hinton broth (MH broth) medium, Trypticase Soy Broth (TSB Broth) medium, purchased from BD Difco, Cockeysville, MD, USA; • 96-well plate: Corning Costar, Cambridge, MA, USA; • Test method: the checkerboard dilution method was used for determination.
(§2) (1) Preparation of the test samples: 4 mg of each sample was taken and was prepared into a test solution at 2,048 μg/mL with MH broth, and the test solution was diluted two-fold in a 96-well plate to prepare solutions of a series of gradient concentrations.
(§3) (2) Preparation of a bacteria solution: The test strains were amplified by Trypticase Soy Broth (TSB Broth) according to the CLSI/NCCLS standard.
(3) Addition of the samples: 10 μL of the bacteria solution with a concentration of 6×10^5 CFU/mL was pipetted into each well of the 96-well plate. Each well contained the antibacterial drugs (the compound of formula (I-1) and the compound of formula (I-2)) diluted two-fold with broth and the aforementioned lactamase inhibitor or efflux pump inhibitor. […] The samples were mixed thoroughly. Three parallel experiments were set up for each concentration and the results were averaged. […]
(5) Calculation: The in vitro effect of each drug-inhibitor combination was analyzed by calculating the FICI value: FICI=(MIC of drug A in the combination/MIC of drug A alone)+ (MIC of drug B in the combination/MIC of drug B alone). […]

Klebsiella pneumoniae [2] = experiment: Combined in vitro use, checkerboard dilution method; assay type: cell-based
Procedure: as §1, §2, §3
(§4) (3) Addition of the samples: 10 μL of the bacteria solution with a concentration of 6×10^5 CFU/mL was pipetted into each well of the 96-well plate. Each well contained the antibacterial drugs (the compound of formula (I-1) and the compound of formula (I-2)) diluted two-fold with broth and the aforementioned lactamase inhibitor or efflux pump inhibitor. […] The samples were mixed thoroughly. Three parallel experiments were set up for each concentration and the results were averaged. To the negative control group, 10 μL of the bacterial solution and 90 μL MH broth were added.
(§5) (4) Incubation: the 96-well plate was placed in a 37° C. constant-temperature incubator for 18 hours, and the growth of the strains was observed.
(§6) (5) Calculation: The in vitro effect of each drug-inhibitor combination was analyzed by calculating the FICI value: FICI=(MIC of drug A in the combination/MIC of drug A alone)+ (MIC of drug B in the combination/MIC of drug B alone).
(§7) In order to ensure the reliability of the data, three repeated tests were conducted on different dates and the results were averaged.

Acinetobacter baumannii [3] = experiment: as above; assay type: cell-based
Procedure: as §1, §2, §3, §4, §5, §6, §7

Enterobacter cloacae [4] = experiment: as above; assay type: cell-based; conditions: compound of formula (I-1) combined with avibactam; Enterobacter cloacae ATCC 2468
Procedure: as §1, §2, §3, §4, §5, §6, §7

Klebsiella pneumoniae [5] = experiment: MIC assay of individual compounds (microdilution, CLSI/NCCLS); assay type: cell-based; conditions: Klebsiella pneumoniae, read-out: MIC
Procedure: (§8) Mueller-Hinton broth (MH broth) medium, Trypticase Soy Broth (TSB Broth) medium, purchased from BD Difco, Cockeysville, MD, USA; • 96-well plate: Corning Costar, Cambridge, MA, USA; • Test method: the antibacterial activities were tested by the microdilution method according to the CLSI/NCCLS standard.
(§9) (1) Preparation of the test samples: 4 mg of each sample was taken, and was prepared into a test solution at 1,024 μg/mL with MH broth, and the test solution was diluted two-fold in a 96-well plate to prepare solutions of a series of gradient concentrations, the volume in each well being 90 μL.
as §3
(§10) (3) Addition of the samples: a bacteria solution with a concentration of 6×10^5 cfu/mL was prepared, and 10 μL of the bacteria solution was pipetted into each well of the 96-well plate. Three parallel experiments were set up for each concentration and the results were averaged. To the negative control group, 10 μL of the bacterial solution and 90 μL MH broth were added.
(§11) (4) Incubation: the 96-well plate was placed in a 37° C. constant-temperature incubator for 18 hours, and the growth of the strains was observed. The drug concentration in the well with no microbial growth was recorded as the MIC.

Escherichia coli = experiment: as above; assay type: cell-based; conditions: individual compound, read-out: MIC
Procedure: as §8, §9, §3, §10, §11

Acinetobacter baumannii [6] = experiment: as above; assay type: cell-based; conditions: individual compound, read-out: MIC
Procedure: as §8, §9, §3, §10, §11

Enterobacter cloacae [7] = experiment: as above; assay type: cell-based; conditions: individual compound, read-out: MIC
Procedure: as §8, §9, §3, §10, §11

Pseudomonas aeruginosa = experiment: as above; assay type: cell-based; conditions: individual compound, read-out: MIC
Procedure: as §8, §9, §3, §10, §11

[8] = tested on: Klebsiella pneumoniae ATCC BAA2146 (NDM-1); experiment: Protective effect on mice systemically infected (survival within 7 days); assay type: in vivo, ICR mice; conditions: for Number of animals survived: 5 mice
Procedure: ICR mice (half male and half female) with healthy appearance and a weight of 18 to 22 g were used. The mice were randomly grouped, with 5 mice (either male or female) in each dose group.
To the mice infected intraperitoneally with NDM-1-producing Klebsiella pneumoniae (at a dose of 3.0×10^6 CFU), drugs were administered once through the tail vein at certain doses (see Table 5) at 1 h and 6 h respectively after the infection for a total of two administrations, with the volume of the drugs administered being 10 mL/kg. The survival of the animals in each group was observed within 7 days, and the survival rates of the mice were calculated. The control group was not given any drugs, and given only physiological saline, and the seven-day survival rate of the mice was 0.
The protective effects of the compound of formula (I-1) administered alone and in combination with avibactam on mice systemically infected with Klebsiella pneumoniae ATCC BAA2146 (NDM-1) are shown in Table 5.

[9] = individual compound 16 mg/kg i.v. (tail vein) at 1 h and 6 h after infection
[10] = individual compound 32 mg/kg i.v. (tail vein) at 1 h and 6 h after infection

**Q.** Which results are given for `CC1(C)[C@H](NC(=O)/C(=N\OC2(C(=O)O)CC2)c2csc(N)n2)C(=O)N1OS(=O)(=O)O` [Compound of formula (I-1)]?
**A.** change of MIC values on combination [1]: significantly reduced; MIC in combination (Klebsiella pneumoniae [2]; compound of formula (I-1) combined with avibactam, Klebsiella pneumoniae ATCC 2146): 0.5 µg/mL; MIC in combination (Klebsiella pneumoniae [2]; compound of formula (I-1) combined with avibactam, Klebsiella pneumoniae ATCC 700603): 0.5 µg/mL; MIC in combination (Klebsiella pneumoniae [2]; compound of formula (I-1) combined with avibactam, Klebsiella pneumoniae CCPM(A)-0814R18): 0.25 µg/mL; MIC in combination (Klebsiella pneumoniae [2]; compound of formula (I-1) combined with avibactam, Klebsiella pneumoniae CCPM(A)-0814R33): 0.25 µg/mL; MIC in combination (Klebsiella pneumoniae [2]; compound of formula (I-1) combined with avibactam, Klebsiella pneumoniae CCPM(A)-0817R61): 1 µg/mL; MIC in combination (Klebsiella pneumoniae [2]; compound of formula (I-1) combined with avibactam, Klebsiella pneumoniae CCPM(A)-081705): 0.5 µg/mL; MIC in combination (Klebsiella pneumoniae [2]; compound of formula (I-1) combined with avibactam, Klebsiella pneumoniae CCPM(A)-081715): 0.5 µg/mL; MIC in combination (Klebsiella pneumoniae [2]; compound of formula (I-1) combined with avibactam, Klebsiella pneumoniae CCPM(A)-081716): 0.25 µg/mL; MIC in combination (Klebsiella pneumoniae [2]; compound of formula (I-1) combined with avibactam, Klebsiella pneumoniae CCPM(A)-081729): 0.5 µg/mL; MIC in combination (Klebsiella pneumoniae [2]; compound of formula (I-1) combined with relebactam, Klebsiella pneumoniae ATCC 2146): 0.5 µg/mL; MIC in combination (Klebsiella pneumoniae [2]; compound of formula (I-1) combined with relebactam, Klebsiella pneumoniae ATCC 700603): 0.125 µg/mL; MIC in combination (Klebsiella pneumoniae [2]; compound of formula (I-1) combined with vaborbactam, Klebsiella pneumoniae ATCC 700603): 0.5 µg/mL; MIC in combination (Klebsiella pneumoniae [2]; compound of formula (I-1) combined with vaborbactam, Klebsiella pneumoniae CCPM(A)-0814R33): 0.5 µg/mL; reduction of MIC values on combination (Acinetobacter baumannii [3]; combined with berberine, Acinetobacter baumannii ATCC19606 and ATCC17978): four-fold; reduction of MIC values on combination (Acinetobacter baumannii [3]; combined with conessine, Acinetobacter baumannii ATCC19606): four-fold; MIC in combination (Acinetobacter baumannii [3]; compound of formula (I-1) combined with PAβN, Acinetobacter baumannii ATCC 17978): 16 µg/mL; MIC in combination (Acinetobacter baumannii [3]; compound of formula (I-1) combined with PAβN, Acinetobacter baumannii ATCC 19606): 16 µg/mL; MIC in combination (Acinetobacter baumannii [3]; compound of formula (I-1) combined with PAβN, Acinetobacter baumannii CCPM(A)-P-101633(CRAB)): 16 µg/mL; MIC in combination (Acinetobacter baumannii [3]; compound of formula (I-1) combined with berberine, Acinetobacter baumannii ATCC 17978): 4 µg/mL; MIC in combination (Acinetobacter baumannii [3]; compound of formula (I-1) combined with berberine, Acinetobacter baumannii ATCC 19606): 4 µg/mL; MIC in combination (Acinetobacter baumannii [3]; compound of formula (I-1) combined with berberine, Acinetobacter baumannii CCPM(A)-P-101633(CRAB)): 16 µg/mL; MIC in combination (Acinetobacter baumannii [3]; compound of formula (I-1) combined with conessine, Acinetobacter baumannii ATCC 19606): 4 µg/mL; MIC in combination (Enterobacter cloacae [4]): 1 µg/mL; MIC (Klebsiella pneumoniae [5]; ATCC2146, individual compound, Klebsiella pneumoniae ATCC 2146): 2 µg/mL; MIC (Klebsiella pneumoniae [5]; ATCC700603, individual compound, Klebsiella pneumoniae ATCC 700603): 4 µg/mL; MIC (Klebsiella pneumoniae [5]; individual compound, Klebsiella pneumoniae CCPM(A)-0814R18): 2 µg/mL; MIC (Klebsiella pneumoniae [5]; individual compound, Klebsiella pneumoniae CCPM(A)-0814R33): 2 µg/mL; MIC (Klebsiella pneumoniae [5]; individual compound, Klebsiella pneumoniae CCPM(A)-0817R61): 64 µg/mL; MIC (Klebsiella pneumoniae [5]; individual compound, Klebsiella pneumoniae CCPM(A)-081301): 2 µg/mL; MIC (Klebsiella pneumoniae [5]; individual compound, Klebsiella pneumoniae CCPM(A)-081705): 2 µg/mL; MIC (Klebsiella pneumoniae [5]; individual compound, Klebsiella pneumoniae CCPM(A)-081715): 2 µg/mL; MIC (Klebsiella pneumoniae [5]; individual compound, Klebsiella pneumoniae CCPM(A)-081716): 128 µg/mL; MIC (Klebsiella pneumoniae [5]; individual compound, Klebsiella pneumoniae CCPM(A)-081729): 2 µg/mL; MIC (Escherichia coli; ATCC2469, Escherichia coli ATCC 2469): 1 µg/mL; MIC (Escherichia coli; Escherichia coli CCPM(A)-P-071301): 2 µg/mL; MIC (Acinetobacter baumannii [6]; ATCC17978, Acinetobacter baumannii ATCC 17978): 16 µg/mL; MIC (Acinetobacter baumannii [6]; ATCC19606, Acinetobacter baumannii ATCC 19606): 16 µg/mL; MIC (Acinetobacter baumannii [6]; Acinetobacter baumannii CCPM(A)-P-101633(CRAB)): 32 µg/mL; MIC (Enterobacter cloacae [7]; ATCC2468, Enterobacter cloacae ATCC 2468): 2 µg/mL; MIC (Enterobacter cloacae [7]; Enterobacter cloacae CCPM(A)-P-111719): 1 µg/mL; MIC (Pseudomonas aeruginosa; Pseudomonas aeruginosa ATCC27853): 16 µg/mL; MIC (Pseudomonas aeruginosa; Pseudomonas aeruginosa CCPM(A)-P-091626(CRPA)): 32 µg/mL; MIC (Pseudomonas aeruginosa; Pseudomonas aeruginosa PAO1(CCPM(A)-P-09000032)): 16 µg/mL; Survival rate of animals (%) [8, 9]: 20%; Number of animals survived [8, 9]: 1; Survival rate of animals (%) [8, 10]: 60%; Number of animals survived [8, 10]: 3
